Legend:
Format in all cases: in vivo
[1] = test system: winter barley (Hordeum vulgare); experiment: Test B postemergence plant response; conditions: for Barley plant response rating (0 to 100 scale): postemergence, 0 is no effect, 100 is complete control; for Plant response rating, Barley: Postemergence
Outline: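 Plants at the 1- to 4-leaf stage (2 to 18 cm tall), grown in pots of peat moss/vermiculite medium with wetting agent and starter nutrients, received postemergence applications of test chemicals. After 13 to 15 days in a greenhouse, injury was rated visually against untreated controls on a 0 (no effect) to 100 (complete control) scale.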

[2] = test system: ducksalad (Heteranthera limosa); experiment: Test B flooded paddy test; conditions: for Plant response rating, Ducksalad: Flood (flooded paddy test), 13 to 15 days; for Ducksalad plant response rating: Flood, 31 g ai/ha, scale 0 to 100 (0 no effect, 100 complete control); for Plant response rating, Flood, Ducksalad: 250 g ai/ha, flooded paddy test, visual rating on 0 to 100 scale (0 no effect, 100 complete control) after 13 to 15 days
Outline: (§1)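 Each compound is added to standing floodwater (3 cm above soil, maintained) in pots of 2-leaf-stage plants; greenhouse exposure lasts 13–15 d before visual comparison with controls on a 0–100 control scale.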

[3] = test system: umbrella sedge (Cyperus difformis); experiment: Test B flooded paddy test; conditions: for Plant response rating, Sedge, Umbrella: Flood (flooded paddy test), 13 to 15 days; for Sedge, Umbrella plant response rating: Flood, 31 g ai/ha, scale 0 to 100 (0 no effect, 100 complete control); for Plant response rating, Flood, Sedge, Umbrella: 250 g ai/ha, flooded paddy test, visual rating on 0 to 100 scale (0 no effect, 100 complete control) after 13 to 15 days
Outline: as §1

[4] = test system: barnyardgrass (Echinochloa crus-galli); experiment: Test B flooded paddy test; conditions: for Plant response rating, Barnyardgrass: Flood (flooded paddy test), 13 to 15 days; for Barnyardgrass plant response rating: Flood, 31 g ai/ha, scale 0 to 100 (0 no effect, 100 complete control); for Plant response rating, Flood, Barnyardgrass: 250 g ai/ha, flooded paddy test, visual rating on 0 to 100 scale (0 no effect, 100 complete control) after 13 to 15 days
Outline: as §1

rice (Oryza sativa) = experiment: Test B flooded paddy test; conditions: for Plant response rating, Rice: Flood (flooded paddy test), 13 to 15 days; for Rice plant response rating: Flood, 31 g ai/ha, scale 0 to 100 (0 no effect, 100 complete control); for Plant response rating, Flood, Rice: 250 g ai/ha, flooded paddy test, visual rating on 0 to 100 scale (0 no effect, 100 complete control) after 13 to 15 days
Outline: as §1

[5] = test system: pigweed (Amaranthus retroflexus); experiment: Test A pre-/postemergence plant response
Outline: (§2)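 Greenhouse trial, ~10 days. Soil (loam/sand) sprayed preemergence after seeding; emerged plants (1–2 leaf, 2–10 cm) sprayed postemergence in parallel. Response = visual injury vs untreated control, 0–100.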

[6] = test system: morningglory (Ipomoea spp.); experiment: Test A pre-/postemergence plant response
Outline: as §2

[7] = test system: wheat (Triticum aestivum); experiment: Test A pre-/postemergence plant response
Outline: as §2

[8] = test system: barnyardgrass (Echinochloa crus-galli); experiment: Test A pre-/postemergence plant response
Outline: as §2

[9] = test system: velvetleaf (Abutilon theophrasti); experiment: Test A pre-/postemergence plant response
Outline: as §2

corn (Zea mays) = experiment: Test A pre-/postemergence plant response
Outline: as §2

[10] = test system: giant foxtail (Setaria faberii); experiment: Test A pre-/postemergence plant response
Outline: as §2

[11] = test system: large crabgrass (Digitaria sanguinalis); experiment: Test A pre-/postemergence plant response
Outline: as §2

[12] = 31 g ai/ha, 0 to 100 scale (0 no effect, 100 complete control)
[13] = 125 g ai/ha, scale 0 to 100 (0 no effect, 100 complete control)
[14] = 250 g ai/ha, scale 0 to 100 (0 no effect, 100 complete control), 13 to 15 days
[15] = 125 g ai/ha, scale 0 to 100, 0 is no effect, 100 is complete control
[16] = Postemergence, 125 g ai/ha, 0 to 100 scale where 0 is no effect and 100 is complete control
[17] = Postemergence, 500 g ai/ha, 0 to 100 scale, 0 = no effect, 100 = complete control, approx. ten days
[18] = Preemergence, 125 g ai/ha, 0 to 100 scale, 0 = no effect, 100 = complete control
[19] = Preemergence, 500 g ai/ha, visual injury, 0 to 100 scale (0 no effect, 100 complete control), approx. ten days
[20] = Preemergence, 500 g ai/ha, 0 to 100 scale, 0 = no effect, 100 = complete control
[21] = 62 g ai/ha, scale of 0 to 100 where 0 is no effect and 100 is complete control
[22] = Postemergence, 500 g ai/ha, visual injury, 0 to 100 scale (0 no effect, 100 complete control), approx. ten days

Cc1ccc(F)cc1-n1c(-c2cccc(Cl)c2)ncc(C(=O)C2=C(O)CCCC2=O)c1=O [Compound 157]
Barley plant response rating (0 to 100 scale) ([1]; 62 g ai/ha, 13 to 15 days): 15
Plant response rating, Barley [1, 12]: 5
Plant response rating, Barley [1, 13]: 30
Plant response rating, Barley [1, 14]: 30
Plant response rating, Ducksalad [2, 15]: 70
Ducksalad plant response rating [2]: 50
Plant response rating, Sedge, Umbrella [3, 15]: 75
Sedge, Umbrella plant response rating [3]: 40
Plant response rating, Barnyardgrass [4, 15]: 0
Barnyardgrass plant response rating [4]: 0
Plant response rating, Rice (rice (Oryza sativa); [15]): 0
Rice plant response rating (rice (Oryza sativa)): 0
Plant response rating, Pigweed [5, 16]: 90
Plant response rating, Pigweed [5, 17]: 100
Plant response rating, Pigweed [5, 18]: 0
Plant response rating, Pigweed [5, 19]: 50
Plant response rating, Morningglory [6, 16]: 10
Plant response rating, Morningglory [6, 17]: 30
Plant response rating, Morningglory [6, 18]: 0
Plant response rating, Morningglory [6, 19]: 0
Plant response rating, Wheat [7, 16]: 0
Plant response rating, Wheat [7, 17]: 0
Plant response rating, Wheat [7, 18]: 0
Plant response rating, Wheat [7, 20]: 0
Plant response rating, Barnyardgrass [8, 16]: 90
Plant response rating, Barnyardgrass [8, 17]: 100
Plant response rating, Barnyardgrass [8, 18]: 0
Plant response rating, Barnyardgrass [8, 19]: 50
Plant response rating, Velvetleaf [9, 16]: 100
Plant response rating, Velvetleaf [9, 17]: 100
Plant response rating, Velvetleaf [9, 18]: 60
Plant response rating, Velvetleaf [9, 20]: 100
Plant response rating, Corn (corn (Zea mays); [16]): 0
Plant response rating, Corn (corn (Zea mays); [17]): 30
Plant response rating, Corn (corn (Zea mays); [18]): 0
Plant response rating, Corn (corn (Zea mays); [19]): 0
Plant response rating, Foxtail, Giant [10, 16]: 90
Plant response rating, Foxtail, Giant [10, 17]: 100
Plant response rating, Foxtail, Giant [10, 18]: 10
Plant response rating, Foxtail, Giant [10, 19]: 50
Plant response rating, Crabgrass, Large [11, 16]: 80
Plant response rating, Crabgrass, Large [11, 17]: 100
Plant response rating, Crabgrass, Large [11, 18]: 20
Plant response rating, Crabgrass, Large [11, 19]: 70

CCc1ccc(-n2c(-c3ccccc3)ncc(C(=O)C3=C(O)CCCC3=O)c2=O)cc1 [Compound 219]
Plant response rating, Barley [1, 12]: 0
Plant response rating, Barley ([1]; 62 g ai/ha, scale 0 to 100 (0 no effect, 100 complete control)): 25
Plant response rating, Barley [1, 13]: 30
Plant response rating, Barley [1, 14]: 30
Plant response rating, Flood, Ducksalad [2]: 90
Plant response rating, Ducksalad [2, 21]: 20
Plant response rating, Ducksalad [2, 15]: 65
Ducksalad plant response rating [2]: 0
Plant response rating, Flood, Sedge, Umbrella [3]: 85
Plant response rating, Sedge, Umbrella [3, 21]: 40
Plant response rating, Sedge, Umbrella [3, 15]: 60
Sedge, Umbrella plant response rating [3]: 20
Plant response rating, Flood, Barnyardgrass [4]: 60
Plant response rating, Barnyardgrass [4, 21]: 0
Plant response rating, Barnyardgrass [4, 15]: 20
Barnyardgrass plant response rating [4]: 0
Plant response rating, Flood, Rice (rice (Oryza sativa)): 75
Plant response rating, Rice (rice (Oryza sativa); [21]): 0
Plant response rating, Rice (rice (Oryza sativa); [15]): 70
Rice plant response rating (rice (Oryza sativa)): 0
Plant response rating, Pigweed [5, 16]: 100
Pigweed plant response rating [5, 22]: 100
Plant response rating, Pigweed [5, 18]: 90
Plant response rating, Pigweed [5, 20]: 100
Plant response rating, Morningglory [6, 16]: 100
Morningglory plant response rating [6, 22]: 100
Plant response rating, Morningglory [6, 18]: 20
Plant response rating, Morningglory [6, 20]: 80
Plant response rating, Wheat [7, 16]: 0
Wheat plant response rating [7, 22]: 30
Plant response rating, Wheat [7, 18]: 0
Plant response rating, Wheat [7, 20]: 20
Plant response rating, Barnyardgrass [8, 16]: 90
Barnyardgrass plant response rating [8, 22]: 90
Plant response rating, Barnyardgrass [8, 18]: 40
Plant response rating, Barnyardgrass [8, 20]: 100
Plant response rating, Velvetleaf [9, 16]: 100
Velvetleaf plant response rating [9, 22]: 100
Plant response rating, Velvetleaf [9, 18]: 30
Plant response rating, Velvetleaf [9, 20]: 90
Plant response rating, Corn (corn (Zea mays); [16]): 0
Corn plant response rating (corn (Zea mays); [22]): 30
Plant response rating, Corn (corn (Zea mays); [18]): 0
Plant response rating, Corn (corn (Zea mays); [20]): 0
Plant response rating, Foxtail, Giant [10, 16]: 50
Foxtail, Giant plant response rating [10, 22]: 90
Plant response rating, Foxtail, Giant [10, 18]: 10
Plant response rating, Foxtail, Giant [10, 20]: 80
Plant response rating, Crabgrass, Large [11, 16]: 80
Crabgrass, Large plant response rating [11, 22]: 100
Plant response rating, Crabgrass, Large [11, 18]: 50
Plant response rating, Crabgrass, Large [11, 20]: 100

CCCn1c(-c2cc(C)cc(C)c2)ncc(C(=O)C2=C(O)CCCC2=O)c1=O [Compound 156]
Barley plant response rating (0 to 100 scale) ([1]; 62 g ai/ha, 13 to 15 days): 45
Plant response rating, Barley [1, 12]: 30
Plant response rating, Barley [1, 13]: 60
Plant response rating, Barley [1, 14]: 85
Plant response rating, Flood, Ducksalad [2]: 100
Plant response rating, Ducksalad [2, 21]: 65
Plant response rating, Ducksalad [2, 15]: 80
Ducksalad plant response rating [2]: 0
Plant response rating, Flood, Sedge, Umbrella [3]: 100
Plant response rating, Sedge, Umbrella [3, 21]: 95
Plant response rating, Sedge, Umbrella [3, 15]: 100
Sedge, Umbrella plant response rating [3]: 0
Plant response rating, Flood, Barnyardgrass [4]: 60
Plant response rating, Barnyardgrass [4, 21]: 20
Plant response rating, Barnyardgrass [4, 15]: 40
Barnyardgrass plant response rating [4]: 0
Plant response rating, Flood, Rice (rice (Oryza sativa)): 35
Plant response rating, Rice (rice (Oryza sativa); [21]): 30
Plant response rating, Rice (rice (Oryza sativa); [15]): 20
Rice plant response rating (rice (Oryza sativa)): 30
Plant response rating, Pigweed [5, 16]: 100
Plant response rating, Pigweed [5, 17]: 100
Plant response rating, Pigweed [5, 18]: 70
Plant response rating, Pigweed [5, 19]: 80
Plant response rating, Morningglory [6, 16]: 100
Plant response rating, Morningglory [6, 17]: 100
Plant response rating, Morningglory [6, 18]: 0
Plant response rating, Morningglory [6, 19]: 0
Plant response rating, Wheat [7, 16]: 0
Plant response rating, Wheat [7, 17]: 20
Plant response rating, Wheat [7, 18]: 0
Plant response rating, Wheat [7, 20]: 0
Plant response rating, Barnyardgrass [8, 16]: 90
Plant response rating, Barnyardgrass [8, 17]: 90
Plant response rating, Barnyardgrass [8, 18]: 0
Plant response rating, Barnyardgrass [8, 19]: 80
Plant response rating, Velvetleaf [9, 16]: 100
Plant response rating, Velvetleaf [9, 17]: 100
Plant response rating, Velvetleaf [9, 18]: 0
Plant response rating, Velvetleaf [9, 20]: 50
Plant response rating, Corn (corn (Zea mays); [16]): 20
Plant response rating, Corn (corn (Zea mays); [17]): 20
Plant response rating, Corn (corn (Zea mays); [18]): 0
Plant response rating, Corn (corn (Zea mays); [19]): 20
Plant response rating, Foxtail, Giant [10, 16]: 80
Plant response rating, Foxtail, Giant [10, 17]: 90
Plant response rating, Foxtail, Giant [10, 18]: 10
Plant response rating, Foxtail, Giant [10, 19]: 50
Plant response rating, Crabgrass, Large [11, 16]: 70
Plant response rating, Crabgrass, Large [11, 17]: 80
Plant response rating, Crabgrass, Large [11, 18]: 10
Plant response rating, Crabgrass, Large [11, 19]: 50

From patent publication US8952024B2, “Herbicidal pyrimidone derivatives” (E I du Pont de Nemours and Company, priority 2009, dated 2015)
